In brackets after ≈: the same amount, converted by molar mass.
Tests used:
[1] = system: human melanoma RPMI-7272 cells; assay: In Vitro RPMI-7272 Human Melanoma Test; type: cell-based; settings: 72 hours after addition of compound, read-out: ID50 (dose required to inhibit the number of cell doublings by 50%)
Protocol: The compounds of this invention were also tested for their ability to inhibit the growth of human melanoma RPMI-7272 cells in vitro.
Cells are seeded at 3×10^5 per 35 mm plate to initiate growth inhibition studies. Cultures to receive growth medium only (control cultures) are set up in quadruplicate; cultures to receive varying concentrations of compounds are set up at one dish per dose of compound. Twenty-four hours post-seeding, duplicate control cell cultures are trypsinized and cells are counted using a Coulter Counter (day 1 control counts). At this time, varying concentrations of test compounds, from 100 to 0.00001 μg/mL are added to cultures and growth medium only is added to control cultures. Seventy-two hours after the addition of compound, cells are trypsinized and counted. The numbers of cell population doublings (day 4) in the presence or absence of compound are calculated.
Compounds are dissolved at 10-25 mg/mL in dimethylsulfoxide. Dilutions to 1 mg/mL in complete growth medium are made, followed by stock preparations of 100 and 30 μg/mL in complete growth medium. Serial ten-fold dilutions in complete medium are formulated from the 100 and 30 μg/mL stocks, respectively, and added to cultures.

[2] = system: B16 melanoma; assay: B16 Murine Melanoma Test; type: in vivo, mouse; settings: intraperitoneal, once daily for nine days
Protocol: (§1) The efficacy of the compounds of this invention against transplanted mouse tumors was evaluated in test systems which are used by the National Cancer Institute for the detection and assessment of anticancer activity. […] J. Cancer, 17, 129-142, (1981); Venditti, J. M., Seminars in Oncology, 8(4)(1981); Goldin, A. and J. M. Venditti in Recent Results in Cancer Research, 70, S. K. Carter and Y. Sakurai, Eds., Springer-Verlag, Berlin/Heidelberg, 1980].
The B16 tumor line arose spontaneously in 1954 on the skin at the base of the ear of a C57BL mouse. The tumor line is maintained by serial passage in female C57BL mice.
On day 0, female B6C3F1 mice are inoculated intraperitoneally with 0.5 mL of a 10% tumor brei. This brei is prepared by homogenizing fresh B16 tumors, grown subcutaneously in C57BL mice, in cold physiological saline. Mice are randomized in groups of ten each, with 20 animals being in the control group. The test compounds and vehicle control are administered intraperitoneally once daily for nine consecutive days beginning on day 1. A ≥20% decrease in body weight on day 5 is considered an indication of toxicity. The acceptable mean control survival time is 14-22 days. Results are expressed as a percentage of the mean survival time of the vehicle-treated control group according to the formula: [formula] […]

[3] = system: L1210 leukemia; assay: L1210 Murine Leukemia Test; type: in vivo, mouse; settings: intraperitoneal, once daily for nine days
Protocol: as §1
The L1210 tumor line originated in 1948 as a lymphocytic leukemia in a female DBA/2 mouse after the skin was treated with 0.2% 20-methylcholanthrene in ethyl ether. The tumor line is maintained by serial passage in female DBA/2 mice.
On day, 0, female CDF1 mice weighing 18-22 g are inoculated with 1×10^5 L1210 leukemia cells harvested from the ascites of DBA/2 mice. The mice are randomized into groups of six each and the test compounds and vehicle control are administered intraperitoneally once daily for nine consecutive days beginning on day 1. A ≥20% decrease in body weight on day 5 is considered an indication of toxicity. The acceptable control mean survival time is 8-11 days.
Results are expressed as percentage of the mean survival time of the vehicle-treated control group according to the formula: [formula] Mice which survive for 30 days are considered cured and are not included in the calculation of the mean survival time.
The NCI criteria for activity is used. A compound is considered to have moderate activity against L1210 leukemia if it has a % T/C≥125%, and it is considered to have good activity against L1210 leukemia if it has a % T/C≥150%.

[4] = system: DLD-2 human colon carcinoma xenograft; assay: DLD-2 Human Colon Carcinoma Xenograft Test; type: in vivo, human tumor in athymic (NU/NU) mice; settings: dose 50 mg/kg, intraperitoneal, once daily for nine days
Protocol: as §1
The DLD-2 tumor line was orignally obtained from a primary colon carcinoma surgically removed from a patient. The line is maintained by serial passage in athymic nude mice.
On day 0, male and female outbred Swiss mice bearing the NU/NU gene and weighing 22-30 g are inoculated with 0.2 mL of a 25% tumor mince. […] Tumor measurements and weights are recorded once a week. […]
The efficacy of the test compounds is determined by the extent of tumor growth inhibition in treated versus vehicle-treated control mice. Initial tumor weights (mg) are calculated from the tumor dimensions (mm) using the formula for the volume of a prolate ellipsoid (L×W^2 /2). Net tumor weights are calculated for each of the treated groups and the vehicle-treated control group by subtracting the initial tumor weight (estimated) from the final tumor weight (actual) on day 19. […] Results are expressed as percent inhibition of control growth according to the formula: [formula] […]

Row | SMILES | IC50 [1] [µg/mL] | % T/C (mean survival time, percentage of vehicle-treated control) ([2]; dose 50 mg/kg) [%] | % T/C (mean survival time, percentage of vehicle-treated control) ([3]; dose 50 mg/kg) [%] | % Inhibition (tumor growth) [4] [%] | % T/C (mean survival time, percentage of vehicle-treated control) ([2]; dose 35 mg/kg) [%] | % T/C (mean survival time, percentage of vehicle-treated control) ([3]; dose 100 mg/kg) [%]
1 | O=C([O-])c1c2c(nc3ccc(F)cc13)-c1ccc(-c3ccccc3)cc1CC2.[Na+] [Example 12, 5,6-Dihydro-9-fluoro-3-phenylbenz[c]acridine-7-carboxylic acid, sodium salt] | 0.06 | 140 | 171 | – | – | –
2 | O=C(O)c1c2c(nc3ccc(F)cc13)-c1ccc(-c3ccccc3)cc1CC2 [Example 3, 5,6-Dihydro-9-fluoro-3-phenylbenz[c]acridine-7-carboxylic acid] | 0.05 (≈ 0.135 µM) | – | – | 70 | 134 | 180
3 | O=C(O)c1c2c(nc3ccc(F)cc13)-c1cc3sc4ccccc4c3cc1CC2 [Example 27, 6,7-Dihydro-3-fluoro[1]-benzothieno[2',3':4,5]benz[1,2-c]acridine-5-carboxylic acid] | 1.4 (≈ 3.5 µM) | – | – | – | – | 149
4 | O=C(O)c1c2c(nc3ccccc13)-c1ccc(-c3ccccc3)cc1CC2 [Example 1, 5,6-Dihydro-3-phenylbenz[c]acridine-7-carboxylic acid] | 14.1 (≈ 40.1 µM) | – | – | – | – | 178
5 | O=C(O)c1c2c(nc3ccccc13)-c1cc3sc4ccccc4c3cc1CC2 [Example 24] | 1.96 (≈ 5.14 µM) | – | – | – | – | –
